Reference: patent US9937199B2, “Materials and methods for preventing and treating anastomotic leaks” (THE UNIVERSITY OF CHICAGO, priority 2012, dated 2018)
≈ marks a conversion by molar mass, not a printed value.

What was measured:
P. aeruginosa MPAO1-P1 = assay: Antibiotic resistance of P1 strain; assay type: cell-based; conditions: Pseudomonas aeruginosa, MPAO1P1
P. aeruginosa MPAO1-P2 = assay: Antibiotic resistance of P2 strain; assay type: cell-based, Pseudomonas aeruginosa; conditions: for fold higher resistance of P2 strain compared to P1 strain: P2 vs P1
Experimental: FIG. 11. Chloramphenicol resistance of P1 and P2 strains. Strains were cultured in TSB containing 250 μg/ml chloramphenicol and grown in 96-well plate (150 μl/well, shaking at 150 rpm, 37° C. Cell density was measured on Plate Reader at OD 600 nm. Values represent the mean of triplicate cultures.

Row | SMILES | MIC (P. aeruginosa MPAO1-P1) [µg/mL] | fold higher resistance of P2 strain compared to P1 strain (P. aeruginosa MPAO1-P2) | MIC (P. aeruginosa MPAO1-P2; Pseudomonas aeruginosa, MPAO1P2, P2 strain) [µg/mL]
1 | CCn1cc(C(=O)O)c(=O)c2cc(F)c(N3CCNCC3)cc21 [norfloxacin] | 0.38 (≈ 1.19 µM) | 10 fold | 3.8 (≈ 11.9 µM)
2 | O=C(N[C@H](CO)[C@H](O)c1ccc([N+](=O)[O-])cc1)C(Cl)Cl [chloramphenicol] |  | about 6 fold | 
